Data: patent US20160278375A1, “BISCATIONIC AND TRISCATIONIC AMPHIPHILES AS ANTIMICROBIAL AGENTS” (Temple University of the Commonwealth System of Higher …, priority 2013, published 2016)
Read-outs that look alike come from different tables or passages of the source.

How the values were obtained:
[1] = system: Pseudomonas aeruginosa (PAO1-WT); assay: MIC determination by two-fold serial dilution in 96-well microtiter plates; assay type: cell-based
Method: (§1) For the compounds above, respective minimum inhibitory concentration (MIC) values against the Gram-positive S. aureus, E. faecalis, Gram-negative E. coli and P. aeruginosa were determined, respectively, by standard methods. […] Cell viability was verified by serial dilution and plating on MH agar. Both aqueous and fresh media positive controls were performed for each trial. Overnight bacterial cultures of Staphylococcus aureus (SH1000), Enterococcus faecalis (OG1RF), Escherichia coli (MC4100), and Pseudomonas aeruginosa (PAO1-WT) were grown in Mueller-Hinton broth at 37° C., with all but E. faecalis under shaking Overnight cultures were diluted to approximately 10^6 cfu/mL as determined by OD measurement at 640 nm and plating on MH agar.
(§2) Each compound was serially diluted two-fold with water from 1 mM down to 1 μM yielding twelve dilutions per compound. In triplicate, 100 µL of each dilution were pipetted into the appropriate well of a 96-well microtiter plate, and then […] of overnight bacterial culture diluted to ca. 10^6 cfu/mL were inoculated into each well. Microtiter plates were incubated at 37° C. for 72 hours. Up to seven compounds were tested against one bacterial species at twelve decreasing concentrations per 96-well plate.

[2] = system: Staphylococcus aureus (SH1000); assay: as above; assay type: cell-based
Method: as §1, §2

[3] = system: Enterococcus faecalis (OG1RF); assay: as above; assay type: cell-based
Method: as §1, §2

[4] = system: Escherichia coli (MC4100); assay: as above; assay type: cell-based; conditions: for MIC: Escherichia coli, read-out: MIC, Gram negative E. coli; for MIC E. coli: Table 2, trisamine compounds
Method: as §1, §2

water solubility = assay type: physicochemical
[5] = system: S. aureus, E. faecalis, E. coli and P. aeruginosa; assay: MIC determination, statements across the bacteria tested; assay type: cell-based; conditions: S. aureus, E. faecalis, E. coli, P. aeruginosa; read-out: MIC values against all four bacterial species tested
Method: as §1, §2

[6] = Pseudomonas aeruginosa, PAO1, Table 1, 37° C., 72 hours, read-out: MIC, Gram negative P. aeruginosa
[7] = Staphylococcus aureus, Table 1, 37° C., 72 hours, read-out: MIC, Gram positive S. aureus
[8] = Enterococcus faecalis, Table 1, 37° C., 72 hours, read-out: MIC, Gram positive E. faecalis
[9] = Table 2, trisamine compounds, read-out: MIC P aeruginosa
[10] = Table 2, trisamine compounds, read-out: MIC S. aureus
[11] = Table 2, trisamine compounds, read-out: MIC E faecalis

Compound | MIC [1, 6] [µM] | MIC [2, 7] [µM] | MIC [3, 8] [µM] | MIC ([4]; 72 h) [µM] | also measured
CCCCCCCCCCCCCCCCCC[N+](C)(C)CC[N+](C)(C)CCCCCCCCCCCCCC [(18, 2, 14)] | 63 | 8 | 16 | 16 | –
CCCCCCCCCCCCCCCCCC[N+](C)(C)CC[N+](C)(C)CCCCCCCC [Compound (18, 2, 8)] | – | – | – | – | water solubility (water solubility): fully water soluble
CCCCCCCCCCCCCCCC[N+](C)(C)CCN(C)C [(16, 2, 0)] | 16 | 1 | 16 | – | MIC ([4]; Table 1, 37° C., 72 hours): 16 µM
CCCCCCCCCCCCC[N+](C)(C)CC[N+](C)(C)CCCCCCCCCC [Compound (13, 2, 10)] | 2 | 1 | 1 | 2 | –
CCCCCCCCCCCC[N+](C)(C)CC[N+](C)(C)CCCCCCCC [(12, 2, 8)] | 4 | 1 | 4 | 4 | –
CCCCCCCCCCCCCCCCCCCC[N+](C)(C)CC[N+](C)(C)CCCCCCCCCCCCCC [(20, 2, 14)] | 63 | 8 | 16 | 16 | –
CCCCCCCCCCCCCCCC[N+](C)(C)CC[N+](C)(C)CCCCCCCCCCCCCCCC [(16, 2, 16)] | 63 | 8 | 8 | 32 | –
CCCCCCCCCCCC[N+](C)(C)CCN(C)CC[N+](C)(C)CCCCCCCCCCCC.[Br-].[Br-] [12, 2, 0, 2, 12] | – | – | – | – | MIC [1, 9]: 4 µM; MIC [2, 10]: 1 µM; MIC [3, 11]: 2 µM; MIC E. coli [4]: 1 µM
CCCCCCCCCCCCCCCCCC[N+](C)(C)CC[N+](C)(C)CCCCCCCCCC [(18, 2, 10)] | 32 | 4 | 2 | 16 | –
CCCCCCCCCCCCCCCCCCCC[N+](C)(C)CC[N+](C)(C)CCCCCCCCCC [(20, 2, 10)] | 16 | 4 | 16 | 16 | –
CCCCCCCCCCCCCCCCCC[N+](C)(C)CC[N+](C)(C)CCCCCCCCCCCCCCCCCC [(18, 2, 18)] | 500 | 32 | 63 | 250 | –
CCCCCCCCCCCCCC[N+](C)(C)CCN(C)C [(14, 2, 0)] | 125 | 2 | 8 | – | MIC ([4]; Table 1, 37° C., 72 hours): 16 µM
CCCCCCCCCCC[N+](C)(C)CC[N+](C)(C)CCCCCCCCCC [(11, 2, 10)] | – | – | – | 4 | MIC ([1]; Pseudomonas aeruginosa, PAO1, 72 h, read-out: MIC, Gram negative P. aeruginosa): 4 µM; MIC ([2]; Staphylococcus aureus, 72 h, read-out: MIC, Gram positive S. aureus): 1 µM; MIC ([3]; Enterococcus faecalis, 72 h, read-out: MIC, Gram positive E. faecalis): 4 µM
CCCCCCCCCCCC[N+](C)(C)CC[N+](C)(C)CCCCCCCCCC [Compound (12, 2, 10)] | – | – | – | – | MIC [5]: ≤ 2 µM
CCCCCCCC[N+](C)(C)CC[N+](C)(C)CCCCCCCC [(8, 2, 8)] | 500 | 32 | 500 | 250 | –
CCCCCCCCCCCCCCCC[N+](C)(C)CC[N+](C)(C)CCCCCCCCCCCCCC [(16, 2, 14)] | 63 | 8 | 2 | 16 | –
CCCCCCCCCCCCCC[N+](C)(C)CC[N+](C)(C)CCCCCCCCCCCCCC [(14, 2, 14)] | 32 | 4 | 2 | 4 | –
CCCCCCCCCC[N+](C)(C)CCN(C)CC[N+](C)(C)CCCCCCCCCC.[Br-].[Br-] [10, 2, 0, 2, 10] | – | – | – | – | MIC [1, 9]: 32 µM; MIC [2, 10]: 2 µM; MIC [3, 11]: 8 µM; MIC E. coli [4]: 8 µM
CCCCCCCCCCCCCCCCCCCC[N+](C)(C)CC[N+](C)(C)CCCCCCCCCCCCCCCC [(20, 2, 16)] | 63 | 16 | 32 | 63 | –
CCCCCCCCCCCCCCCC[N+](C)(C)CC[N+](C)(C)CCCCCCCCCC [(16, 2, 10)] | 32 | 4 | 4 | 8 | –
CCCCCCCCCCCCCCCCCC[N+](C)(C)CCN(C)C [(18, 2, 0)] | – | 2 | 4 | – | MIC ([1]; Table 1, 37° C., 72 hours, read-out: MIC, Gram negative P. aeruginosa): 63 µM; MIC ([4]; Table 1, 37° C., 72 hours): 63 µM
